# Target: human Edg-2 receptor (LPA1 receptor) (Homo sapiens, UniProt Q92633)
# Experiment: Edg-2 receptor inhibition by FLIPR calcium fluorescence measurement (LPA-mediated calcium liberation)
# Format: cell-based
# Settings: CHO cells stably overexpressing human Edg-2 receptor; LPA 18:1 100 nM; fluo-4 fluorescence; triplicate; read-out: Inhibitory concentrations IC50 for inhibition of the Edg-2 receptor
# Procedure: A) Determination of Edg-2 Receptor Inhibition by Fluorescence Imaging Plate Reader (FLIPR) Measurements
# The inhibition of the Edg-2 receptor (LPA1 receptor) by the compounds of the invention was quantified by the inhibitory effect on the LPA-mediated calcium liberation in a cell-based calcium fluorescence assay by use of Chinese hamster ovarian (CHO) cells in which the human Edg-2 receptor was stably overexpressed (FIp-In system, Invitrogen). […] Changes in intracellular calcium were determined by fluorescence measurement with the calcium-sensitive dye fluo-4 (Invitrogen) in a fluorescence imaging plate reader (FLIPR, […]).
# CHO cells stably overexpressing the human Edg-2 receptor were seeded (40.000 per well) in black clear-bottomed poly-D-lysine-coated 96 well plates (Becton Dickinson, Biocoat cellware) approximately 18-24 h prior to the experiments. Cells were grown in an incubator at 37° C., 5% carbon dioxide and 95% humidity in cell culture media based on F-12 glutamax media (Gibco, #31765) supplemented with 1% (vol/vol) penicilline/streptomycine (PAN, #P06-07100), 10% (vol/vol) fetal calf serum (FCS, PAA, #A15-151) and hygromycin B (Invitrogen, #10687-010) 300 mg/l (final concentrations).
# Prior to the FLIPR experiment, cells were loaded with fluo-4 acetoxymethyl ester (fluo-4 AM, Invitrogen, #F14202) for 60 min in an incubator at 37° C., 5% carbon dioxide and 95% humidity in dye-loading buffer consisting of Hanks' Balanced Salt Solution (HBSS, Invitrogen, #14065049) supplemented with fluo-4 AM at 2 μM (all data given for final concentration), Pluronic® F-127 0.05% (vol/vol) (Invitrogen, #P-3000 MP), HEPES 20 mM (Gibco, #15630), probenecid 2.5 mM (Sigma, #P-8761) and bovine serum albumin 0.05% (BSA, Sigma, #A-6003), adjusted to pH 7.5 with sodium hydroxide. During cell loading, fluo-4 AM is cleaved by intracellular esterase resulting in trapping of the dye fluo-4 within the cells. Loading was terminated by washing of the cells in a cell washer (Tecan Power washer) three times with the buffer specified afore but without fluo-4 AM and BSA. This latter buffer was also used as the buffer in the subsequent cell fluorescence measurements.
# The dye-loaded and washed cells were pre-incubated for approximately 5 min with various concentrations of the test compound added as a solution in DMSO (0.3% vol/vol maximum final concentration of DMSO), or with DMSO in the respective concentration only (positive control). Subsequent addition of LPA (18:1, 1-oleoyl-sn-glycerol 3-phosphate; 100 nM final concentration) leads to liberation of intracellular calcium from internal stores resulting in a large transient increase of the fluo-4 fluorescence signal which was monitored over approximately 3 min. The percent inhibition caused by the test compound was determined from the maximum fluorescence response after LPA addition to cells pre-incubated with the compound as compared to the maximum fluorescence response after LPA addition to cells pre-incubated with DMSO only. All fluorescence values were corrected for the baseline fluorescence values obtained with cells which were pre-incubated with DMSO only and were not treated with LPA (baseline control). All measurements were performed in triplicate. From the percent inhibitions the inhibitory concentration IC50 was determined.
# Chain of human Edg-2 receptor (LPA1 receptor) (Q92633 whole entry): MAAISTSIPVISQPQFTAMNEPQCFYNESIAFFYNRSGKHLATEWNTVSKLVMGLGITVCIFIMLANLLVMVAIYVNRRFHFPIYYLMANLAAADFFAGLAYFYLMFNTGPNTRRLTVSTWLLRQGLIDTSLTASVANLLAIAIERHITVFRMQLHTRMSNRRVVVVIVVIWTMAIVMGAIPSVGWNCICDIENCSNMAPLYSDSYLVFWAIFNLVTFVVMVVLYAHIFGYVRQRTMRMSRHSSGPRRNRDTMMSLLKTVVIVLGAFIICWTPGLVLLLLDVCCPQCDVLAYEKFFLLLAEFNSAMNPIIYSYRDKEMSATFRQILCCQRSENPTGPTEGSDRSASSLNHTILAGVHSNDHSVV
row,SMILES,IC50 [nM]
1,"Cc1cccc(CCOc2cc(C(=O)NC3(C(=O)O)Cc4ccccc4C3)ccc2Br)c1 [Example 2, 2-[4-Bromo-3-(2-m-tolyl-ethoxy)-benzoylamino]-indane-2-carboxylic acid]",< 100
2,"CSc1ccc(C(=O)NC2(C(=O)O)Cc3ccccc3C2)cc1OCCc1cccc(C)c1 [Example 4, 2-[4-Methylsulfanyl-3-(2-m-tolyl-ethoxy)-benzoylamino]-indane-2-carboxylic acid]",< 100
3,"Cc1cccc(CCOc2cc(C(=O)NC3(C(=O)O)Cc4ccccc4C3)ccc2[S+](C)[O-])c1 (centres unmarked) [Example 5, 2-[4-Methanesulfinyl-3-(2-m-tolyl-ethoxy)-benzoylamino]-indane-2-carboxylic acid]",1000 to 30000
4,"Cc1cccc(CCOc2cc(C(=O)NC3(C(=O)O)Cc4ccccc4C3)ccc2S(C)(=O)=O)c1 [Example 6, 2-[4-Methanesulfonyl-3-(2-m-tolyl-ethoxy)-benzoylamino]-indane-2-carboxylic acid]",1000 to 30000
5,"CC(=O)c1ccc(C(=O)NC2(C(=O)O)Cc3ccccc3C2)cc1OCCc1cccc(C)c1 [Example 8, 2-[4-Acetyl-3-(2-m-tolyl-ethoxy)-benzoylamino]-indane-2-carboxylic acid]",100 to 1000
6,"Cc1cccc(CCOc2cc(C(=O)NC3(C(=O)O)Cc4ccccc4C3)ccc2C(C)O)c1 (centres unmarked) [Example 9, 2-[4-(1-Hydroxy-ethyl)-3-(2-m-tolyl-ethoxy)-benzoylamino]-indane-2-carboxylic acid]",100 to 1000
7,"CCc1ccc(C(=O)NC2(C(=O)O)Cc3ccccc3C2)cc1OCCc1cccc(C)c1 [Example 10, 2-[4-Ethyl-3-(2-m-tolyl-ethoxy)-benzoylamino]-indane-2-carboxylic acid]",< 100

# Other lines, results leading:
row,IC50 [nM],SMILES
1,< 100,"COc1ccc(C(=O)NC2(C(=O)O)Cc3ccccc3C2O)cc1OCCc1cccc(C)c1 (single isomer, unassigned) [Example 220, 1-Hydroxy-2-[4-methoxy-3-(2-m-tolyl-ethoxy)-benzoylamino]-indane-2-carboxylic acid]"
2,< 100,"Cc1cccc(CCOc2cc(C(=O)NC3(C(=O)O)Cc4ccccc4C3)ccc2C(C)F)c1 (centres unmarked) [Example 11, 2-[4-(1-Fluoro-ethyl)-3-(2-m-tolyl-ethoxy)-benzoylamino]-indane-2-carboxylic acid]"
3,< 100,"CCOc1ccc(C(=O)NC2(C(=O)O)Cc3ccccc3C2)cc1OCCc1cccc(C)c1 [Example 12, 2-[4-Ethoxy-3-(2-m-tolyl-ethoxy)-benzoylamino]-indane-2-carboxylic acid]"
4,< 100,"COc1ccc(C(=O)NC2(C(=O)O)Cc3ccccc3C2)cc1OCCc1cccc(C)c1 [Example 14, 2-[4-Methoxy-3-(2-m-tolyl-ethoxy)-benzoylamino]-indane-2-carboxylic acid]"
5,< 100,"COc1ccc(C(=O)NC2(C(=O)O)Cc3ccccc3C2)cc1OCCc1cccc(SC)c1 [Example 16, 2-{4-Methoxy-3-[2-(3-methylsulfanyl-phenyl)-ethoxy]-benzoylamino}-indane-2-carboxylic acid]"
6,1000 to 30000,"COc1ccc(C(=O)NC2(C(=O)O)Cc3ccccc3C2)cc1OCCc1cccc([S+](C)[O-])c1 (centres unmarked) [Example 17, 2-{3-[2-(3-Methanesulfinyl-phenyl)-ethoxy]-4-methoxy-benzoylamino}-indane-2-carboxylic acid]"
7,1000 to 30000,"COc1ccc(C(=O)NC2(C(=O)O)Cc3ccccc3C2)cc1OCCc1cccc(S(C)(=O)=O)c1 [Example 18, 2-{3-[2-(3-Methanesulfonyl-phenyl)-ethoxy]-4-methoxy-benzoylamino}-indane-2-carboxylic acid]"
8,< 100,COc1ccc(C(=O)NC2(C(=O)O)Cc3ccccc3C2)cc1OCCc1cccc(SC(F)(F)F)c1 [Example 19]
9,< 100,COc1ccc(C(=O)NC2(C(=O)O)Cc3ccccc3C2)cc1OCCc1cc(C)ccc1F [Example 20]
10,< 100,"COc1ccc(C(=O)NC2(C(=O)O)Cc3ccccc3C2)cc1OCCc1cccc(C2CC2)c1 [Example 21, 2-{3-[2-(3-cyclopropyl-phenyl)-ethoxy]-4-methoxy-benzoylamino}-indane-2-carboxylic acid]"
